Tests used:
Format in all cases: binding
PTGIR = target: T1, PTGIR (Homo sapiens, UniProt P43119); assay: NanoBRET screen HiBiT-PTGIR in HEK293; conditions: PTGIR
T1 construct: purchased Promega (in-house HiBiT-GPCR construct library, NanoBRET)
Experimental: (§1) Each tracer candidate was screened across the entire library of HiBiT-GPCR constructs using NanoBRET as the detection modality. As depicted in Figure 4A, the specificity of interactions was evaluated through decrease in BRET due to competitive displacement of a bound tracer by excess parental compound. Each tracer was analyzed for binding to each HiBiT-GPCR fusion in the absence and in the presence of competing parental compound. Briefly, HEK293 cells were transfected with HiBiT-GPCR constructs diluted into promoterless DNA to reduce expression and maximize translocation to the cell surface. Each tracer candidate was then screened at concentrations of 1 μM and 0.1 μM across cells expressing these fusions. Cells were treated for 1.5 h with tracer either alone or in the presence of 20 μM competing parental compound (i.e., control). BRET was measured upon addition of purified LgBiT and subsequent complementation with HiBiT genetically fused to a GPCR. The specificity of interactions was assessed through a decrease in BRET signal due to competitive displacement of the bound tracer. To further gauge the robustness of these interactions, the fold response over the control (i.e., BRETtracer/BRETcontrol) was calculated. We chose a 1.5-fold response, which translates to ≥7-fold signal over noise as the minimal threshold required to score an interaction as positive. […]. Below we highlight the screening results obtained for our exemplary fluorescent tracers based on Clozapine, Amitriptyline and AZD1283.
(§2) HiBiT-GPCR DNA constructs were diluted in 10 mM Tris pH 8 to a final concentration of 0.01 μg/μL, arrayed in 96-well plates and stored at −20 °C. For transfection, HEK293 cells were suspended in Opti-MEM (without phenol red) supplemented with 2% fetal bovine serum (Seradigm) and 100 units/mL penicillin–streptomycin (Gibco) at a final concentration of 220,000 cells/mL and dispensed into white 96-well plates at 90 μL/well. Subsequent transfections and screens were carried using an Agilent Bravo Automated Liquid Handling Platform. First, the 96-well HiBiT DNA arrays were diluted 25-fold in Opti-MEM (without serum or phenol red) to a final concentration of 0.0004 μg/μL and 20 μL of the diluted DNAs were transferred into new 96-well plates. Next, promoterless carrier DNA (1 μg/μL) was diluted 25-fold (0.04 μg/μL) and then dispensed into the diluted arrays at 20 μL/well. Following brief mixing, Viafect transfection reagent (Promega) diluted 16-fold into Opti-MEM was dispensed into the plates at 40 μL/well. After mixing by pipetting, plates were incubated for 10 min on the pipetting station deck. The DNA-transfection reagent complexes were then added to plates containing cells. To facilitate the screen, 10 μL of DNA-transfection reagent complexes were added in duplicates to the top 4 and bottom 4 rows, resulting in two identical 48-well arrays per plate. Plates with transfected cells were incubated for 18–20 h at 37 °C/5% CO2. A screen of each tracer across the entire library using two different concentrations requires duplicate plates of transfected cells. Depending on the number of tracers being screened, transfections can be scaled up using the same ratios. The next day, for each tracer, four 20× screening solutions in tracer dilution buffer (Promega) were prepared: two duplicates at final concentration of 20 μM and two duplicates at a final concentration of 2 μM. A competing unmodified compound was added to one of each duplicate at a final concentration of 400 μM. The four resulting solutions were diluted 4-fold in Opti-MEM without serum or phenol red to generate 5× solutions (5 µM and 0.5 µM tracer +/− 100 μM competing compound). To screen the library, a BioTek MultiFlo FX liquid dispenser was used to dispense 22.5 µL of tracer solution to the top 4 rows and 22.5 µL tracer + competing compound solution to the 4 bottom rows. Plates were briefly mixed on an orbital shaker and incubated for 1.5 h at room temperature. […]

CYSLTR2 = target: T2, CYSLTR2 (Homo sapiens, UniProt Q9NS75); assay: NanoBRET screen HiBiT-CYSLTR2 in HEK293; conditions: CYSLTR2
T2 construct: purchased Promega (in-house HiBiT-GPCR construct library, NanoBRET)
T2 sequence (Q9NS75 1-346): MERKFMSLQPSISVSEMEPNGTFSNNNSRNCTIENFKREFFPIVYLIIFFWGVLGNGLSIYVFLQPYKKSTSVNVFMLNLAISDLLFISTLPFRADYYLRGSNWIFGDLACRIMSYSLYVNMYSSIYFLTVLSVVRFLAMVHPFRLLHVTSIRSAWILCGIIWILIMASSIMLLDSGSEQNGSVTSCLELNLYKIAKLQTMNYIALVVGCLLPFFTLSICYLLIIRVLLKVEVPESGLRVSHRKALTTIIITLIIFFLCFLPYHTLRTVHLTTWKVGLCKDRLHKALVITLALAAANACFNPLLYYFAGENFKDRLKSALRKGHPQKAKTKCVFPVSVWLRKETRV
Experimental: as §1, §2

SMO = target: T3, SMO (Homo sapiens, UniProt Q99835); assay: NanoBRET screen HiBiT-SMO in HEK293; conditions: SMO
T3 construct: purchased Promega (in-house HiBiT-GPCR construct library, NanoBRET)
T3 sequence (Q99835 28-787): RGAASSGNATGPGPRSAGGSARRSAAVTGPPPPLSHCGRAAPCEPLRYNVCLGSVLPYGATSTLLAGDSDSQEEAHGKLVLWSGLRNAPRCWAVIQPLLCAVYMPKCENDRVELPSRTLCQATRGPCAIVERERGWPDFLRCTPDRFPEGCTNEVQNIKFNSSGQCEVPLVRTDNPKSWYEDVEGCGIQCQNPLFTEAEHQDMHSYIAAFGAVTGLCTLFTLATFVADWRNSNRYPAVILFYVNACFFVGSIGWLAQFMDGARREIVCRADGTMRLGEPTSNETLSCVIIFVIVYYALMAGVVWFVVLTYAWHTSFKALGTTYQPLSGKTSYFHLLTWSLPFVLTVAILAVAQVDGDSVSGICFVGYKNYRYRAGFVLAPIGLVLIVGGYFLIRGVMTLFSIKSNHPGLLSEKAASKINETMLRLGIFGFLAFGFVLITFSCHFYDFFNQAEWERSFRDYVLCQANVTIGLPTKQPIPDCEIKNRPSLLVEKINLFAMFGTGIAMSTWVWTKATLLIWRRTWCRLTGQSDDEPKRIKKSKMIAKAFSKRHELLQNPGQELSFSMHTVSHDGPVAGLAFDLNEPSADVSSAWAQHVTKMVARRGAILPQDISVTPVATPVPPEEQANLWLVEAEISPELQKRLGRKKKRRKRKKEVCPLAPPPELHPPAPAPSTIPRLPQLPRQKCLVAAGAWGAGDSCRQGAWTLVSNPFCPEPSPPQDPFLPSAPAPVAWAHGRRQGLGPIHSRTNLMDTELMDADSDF
Experimental: as §1, §2

CCR4 = target: T4, CCR4 (Homo sapiens, UniProt P51679); assay: NanoBRET screen HiBiT-CCR4 in HEK293; conditions: CCR4
T4 construct: purchased Promega (in-house HiBiT-GPCR construct library, NanoBRET)
T4 sequence (P51679 1-360): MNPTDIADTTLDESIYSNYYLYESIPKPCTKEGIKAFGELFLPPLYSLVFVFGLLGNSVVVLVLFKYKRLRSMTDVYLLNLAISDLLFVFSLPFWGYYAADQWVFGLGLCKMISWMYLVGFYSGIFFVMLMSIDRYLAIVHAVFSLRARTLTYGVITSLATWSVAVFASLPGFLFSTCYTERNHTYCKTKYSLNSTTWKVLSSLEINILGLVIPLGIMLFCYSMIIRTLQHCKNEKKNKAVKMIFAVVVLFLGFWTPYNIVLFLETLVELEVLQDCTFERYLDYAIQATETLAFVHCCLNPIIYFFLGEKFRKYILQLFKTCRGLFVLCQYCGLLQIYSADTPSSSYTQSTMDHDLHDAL
Experimental: as §1, §2

TBXA2R = target: T5, TBXA2R (Homo sapiens, UniProt P21731); assay: NanoBRET screen HiBiT-TBXA2R in HEK293; conditions: TBXA2R
T5 construct: purchased Promega (in-house HiBiT-GPCR construct library, NanoBRET)
T5 sequence (P21731 1-343): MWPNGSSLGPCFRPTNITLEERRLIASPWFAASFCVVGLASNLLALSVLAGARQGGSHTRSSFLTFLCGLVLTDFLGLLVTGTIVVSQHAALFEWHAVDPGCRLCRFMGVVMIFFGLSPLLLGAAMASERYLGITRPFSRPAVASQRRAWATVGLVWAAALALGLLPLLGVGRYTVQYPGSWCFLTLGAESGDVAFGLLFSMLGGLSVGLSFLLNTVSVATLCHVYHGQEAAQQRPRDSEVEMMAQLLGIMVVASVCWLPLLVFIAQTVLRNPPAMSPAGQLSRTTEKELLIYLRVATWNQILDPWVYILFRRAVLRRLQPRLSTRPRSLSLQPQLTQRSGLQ
Experimental: as §1, §2

HRH3 = target: T6, HRH3 (Homo sapiens, UniProt Q9Y5N1); assay: NanoBRET screen HiBiT-HRH3 in HEK293; conditions: HRH3
T6 construct: purchased Promega (in-house HiBiT-GPCR construct library, NanoBRET)
T6 sequence (Q9Y5N1 whole entry): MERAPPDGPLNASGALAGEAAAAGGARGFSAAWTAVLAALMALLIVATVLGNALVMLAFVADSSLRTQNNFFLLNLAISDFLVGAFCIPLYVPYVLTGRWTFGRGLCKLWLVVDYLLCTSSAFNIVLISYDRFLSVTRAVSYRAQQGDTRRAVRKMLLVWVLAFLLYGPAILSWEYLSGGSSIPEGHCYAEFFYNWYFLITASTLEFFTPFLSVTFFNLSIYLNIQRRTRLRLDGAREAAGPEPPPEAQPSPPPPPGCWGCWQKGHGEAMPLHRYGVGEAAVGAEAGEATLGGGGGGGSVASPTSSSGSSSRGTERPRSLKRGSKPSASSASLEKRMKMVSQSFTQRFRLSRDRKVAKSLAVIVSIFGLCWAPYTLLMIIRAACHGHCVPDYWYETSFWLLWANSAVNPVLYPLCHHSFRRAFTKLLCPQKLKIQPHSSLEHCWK
Experimental: as §1, §2

T1 sequence (P43119 whole entry): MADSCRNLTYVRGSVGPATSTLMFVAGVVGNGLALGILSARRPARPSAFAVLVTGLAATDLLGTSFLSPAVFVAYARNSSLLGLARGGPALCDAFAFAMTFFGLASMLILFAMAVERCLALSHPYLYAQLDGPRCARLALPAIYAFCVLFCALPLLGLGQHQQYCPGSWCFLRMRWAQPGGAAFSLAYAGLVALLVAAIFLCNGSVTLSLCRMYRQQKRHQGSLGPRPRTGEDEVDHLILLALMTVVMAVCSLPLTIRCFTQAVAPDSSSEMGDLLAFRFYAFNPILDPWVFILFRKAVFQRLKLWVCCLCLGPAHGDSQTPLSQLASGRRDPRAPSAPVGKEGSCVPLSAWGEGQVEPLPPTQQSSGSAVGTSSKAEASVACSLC

Row | SMILES | NanoBRET Fold Response (PTGIR; tracer 0.1μM) | NanoBRET Fold Response (PTGIR; tracer 1μM) | NanoBRET Fold Response (CYSLTR2; tracer 0.1μM) | NanoBRET Fold Response (CYSLTR2; tracer 1μM) | NanoBRET Fold Response (SMO; tracer 0.1μM) | NanoBRET Fold Response (SMO; tracer 1μM) | NanoBRET Fold Response (CCR4; tracer 0.1μM) | NanoBRET Fold Response (CCR4; tracer 1μM) | NanoBRET Fold Response (TBXA2R; tracer 0.1μM) | NanoBRET Fold Response (TBXA2R; tracer 1μM) | NanoBRET Fold Response (HRH3; tracer 0.1μM) | NanoBRET Fold Response (HRH3; tracer 1μM) | further results
1 | O=C(CCc1ccc2n1[B-](F)(F)[N+]1=C(c3ccc[nH]3)C=CC1=C2)NCc1ccc(C(=O)NCCOCCC(=O)N[C@@H]2CC[C@@]3(O)[C@H]4Cc5ccc(O)c6c5[C@@]3(CCN4CC3CC3)[C@H]2O6)cc1 [Naltrexone-3-NB590] | 0.98 | 1.17 | 1.05 | 0.98 | 0.58 | 0.55 | 0.32 | 0.97 | 1.24 | 1.13 | 0.76 | 0.77 | –
2 | Cc1cc2c(s1)Nc1ccccc1N=C2N1CCN(CCCNC(=O)CCOCCOCCOCCOCCNC(=O)CCc2ccc3n2[B-](F)(F)[N+]2=C(c4ccc[nH]4)C=CC2=C3)CC1 [Olanzapine-a-2-NB590] | 0.99 | 0.98 | 0.95 | 0.99 | 1.12 | 0.82 | 1.01 | 0.92 | 0.95 | 1.02 | 1.06 | 1.16 | –
3 | O=C(CCc1ccc2n1[B-](F)(F)[N+]1=C(c3ccc[nH]3)C=CC1=C2)NCc1ccc(C(=O)NCCOCCOCCNCC(O)COc2cccc3ccccc23)cc1 (stereo not drawn) [Propranolol-3-NB590] | – | – | – | – | – | – | – | – | – | – | – | – | NanoBRET Fold Response (PTGIR; 0.1μM): 1.05; NanoBRET Fold Response (PTGIR; 1μM): 0.97; NanoBRET Fold Response (CYSLTR2; 0.1μM): 0.54; NanoBRET Fold Response (CYSLTR2; 1μM): 1.01; NanoBRET Fold Response (SMO; 0.1μM): 1.16; NanoBRET Fold Response (SMO; 1μM): 1.07; NanoBRET Fold Response (CCR4; 0.1μM): 1.11; NanoBRET Fold Response (CCR4; 1μM): 1.03; NanoBRET Fold Response (TBXA2R; 0.1μM): 0.97; NanoBRET Fold Response (TBXA2R; 1μM): 1.09; NanoBRET Fold Response (HRH3; 0.1μM): 0.97; NanoBRET Fold Response (HRH3; 1μM): 1.00
4 | O=C(CCc1ccc2n1[B-](F)(F)[N+]1=C(c3ccc[nH]3)C=CC1=C2)NCCOCCOCCNC(=O)OCCOCCN1CCN(C2=Nc3ccccc3Sc3ccccc32)CC1 [Quetiapine-a-2-NB590] | 1.03 | 0.94 | 0.88 | 0.85 | 0.94 | 0.96 | 1.02 | 0.94 | 1.01 | 1.05 | 1.09 | 0.98 | –

Source: paper PMC8151276, “An Integrated Approach toward NanoBRET Tracers for Analysis of GPCR Ligand Engagement” (Molecules, 2021)
